# Results published in patent US20160326219A1, “OPTICALLY ACTIVATED RECEPTORS” (IST AUSTRIA (INSTITUTE OF SCIENCE AND TECHNOLOGY AUSTRIA), priority 2013, published 2016).
# Where two headings read alike, the source gives them in different places.
# Experiments:
# M38K cells = test: All optical evaluation of pharmacological compounds / cell morphology, M38K cells stably expressing Opto-mFGFR1; type: cell-based, human; details: for Abrogation of light-induced morphology changes of M38K cells: Opto-mFGFR1 activated by blue light ~3 μW/mm^2, PD 5 μM, BIBF 0.5 μM, PON 1 μM, SEL 0.5 μM, UO 10 μM, MK 10 μM, LY 20 μM, automated image analysis
# From the text: M38K and SPC212, two malignant pleural mesothelioma cell lines, were maintained in RPMI1640 supplemented with 10% FBS. Telomerase-immortalized microvascular hBE cells were maintained in Clonetics EGM2 MV endothelial growth medium (Lonza, Wakersville, Md.) supplemented with 5% FBS. For retrovirus generation, Opto-mFGFR1 or mCherry as control was subcloned into pQCXIP (Clontech, Mountain View, Calif.) using EcoRI and NotI restriction enzymes. Viral particles were generated in HEK293 cells by co-transfection with the helper plasmids pVSV-G and p-gag-pol-gpt. Supernatants were used to transduce M38K, SPC212 or hBE cells grown to 50% confluency in 6-well plates. Cells were selected with 0.8 μg/ml puromycin for 10 d and transgene expression was verified by immunoblotting.
# 10^5 M38K cells were seeded in each well of 6-well plates. After 24 h, cells were stimulated for 1 h or kept in the dark. FGF2 (Sigma) or PD166866 (Pfizer Global Research and Development, New London, Conn.) were added as indicated. After additional 24 h, cells were photographed on the Nikon Ti300 microscope. For quantification of cell morphology, all cell perimeters in randomly selected sections of phase contrast images were traced and aspect ratios (defined as length of major axis divided by length of minor axis of a fitted ellipse) calculated with ImageJ software (National Institute of Health). Greater than 50 individual values contributed to each average.
# For M38K cells, cell morphology was evaluated as described above but followed by automated image analysis. Phase contrast images (typically three images from two wells) were automatically analyzed. Images were converted to greyscale, resized and divided into segments for local threshold correction (threshold was defined as most probably intensity multiplied by a constant factor of 0.85; Igor Pro, Wavemetrics, Lake Oswego, Oreg.). Cells were identified and measured in FIJI/ImageJ (Max Planck Society/National Institutes of Health; size limit: 40 to 600 pixel̂2, circularity limit: 0.01 to 1.00). Occasionally, outliers were removed manually. Typically 200 to 1800 individual values contributed to the averages of FIG. 9. For HEK293 cells, MAPK pathway activation was measured using luciferase as described above.
# MAPK pathway = test: All optical evaluation of pharmacological compounds, luciferase signals of HEK293 cells expressing redOpto-rtrkB; type: cell-based, human; details: red light ~0.05 μW/mm^2, UO 10 μM, SEL 0.5 μM, PD 5 μM, IMA 0.5 μM, VEM 0.5 μM
# Description: Phycocyanobilin (PCB; Livchem Logistics GmbH, Frankfurt a.M., Germany) was dissolved in a dark room to a stock concentration of 10 mM in DMSO. Aliquots were stored in the dark at −20° C. Prior to experiments, cells were incubated with 50 μM PCB overnight in reduced serum starve medium at 37° C. PCB could also be applied to applied to living animals as it is non-toxic even in high doses (0.17% of diet or 10 mg/kg) (McCarty (2007).
# Activation of the MAPK pathway was assayed with the PathDetect Elk1 trans-Reporting System (Agilent) consisting of an Elk1 phosphorylation-dependent trans-activator and a luciferase-based trans-reporter. Cells were transfected with 213.3 ng total DNA per well (receptor, trans-activator and trans-reporter at ratio of 1:3:60 or 1:30:600) using Lipofectamine 2000. Six h after transfection medium was replaced with CO2-independent reduced serum starve medium (Gibco/Life Technologies; supplemented with 0.5% FBS, 2 mM L-Glutamine, 100 U/ml penicilin and 0.1 mg/ml streptomycin) for 18 h at 37° C. Cells were transferred and were either kept under constant illumination for 8 h or were protected from light. […] After incubation, plates were washed once with PBS and luciferase was detected with standard, off-the-shelf reagents. These were either Luciferase 1000 Assay System (Promega, Mannheim, Germany) in combination with a microplate reader equipped with an injector (Tecan Infinite 200 Pro, Maennedorf, Switzerland), or ONE-Glo Assay System (Promega) in combination with a microplate reader not equipped with an injector (BioTek Synergy H1). […]
# For M38K cells, cell morphology was evaluated as described above but followed by automated image analysis. Phase contrast images (typically three images from two wells) were automatically analyzed. […] Cells were identified and measured in FIJI/ImageJ (Max Planck Society/National Institutes of Health; size limit: 40 to 600 pixel̂2, circularity limit: 0.01 to 1.00). […] For HEK293 cells, MAPK pathway activation was measured using luciferase as described above.
# [1] = high doses (0.17% of diet or 10 mg/kg), McCarty (2007); cited from earlier work
# imFGFR1 = molecular target: T1, imFGFR1 (Mus musculus, UniProt P16092); test: Chemical stimulation of imFGFR1, MAPK luciferase reporter (HEK293 cells); type: cell-based, murine; details: 10 nM, FIG. 2b
# T1 construct: a single or both FKBP domains were deleted to yield constructs miFGFR1 and miFGFR1-ΔFKBP; myristoylation domain (N); expressed in transfected cells; host or cells: HEK293
# T1 sequence (P16092 with tags, fused parts or gaps): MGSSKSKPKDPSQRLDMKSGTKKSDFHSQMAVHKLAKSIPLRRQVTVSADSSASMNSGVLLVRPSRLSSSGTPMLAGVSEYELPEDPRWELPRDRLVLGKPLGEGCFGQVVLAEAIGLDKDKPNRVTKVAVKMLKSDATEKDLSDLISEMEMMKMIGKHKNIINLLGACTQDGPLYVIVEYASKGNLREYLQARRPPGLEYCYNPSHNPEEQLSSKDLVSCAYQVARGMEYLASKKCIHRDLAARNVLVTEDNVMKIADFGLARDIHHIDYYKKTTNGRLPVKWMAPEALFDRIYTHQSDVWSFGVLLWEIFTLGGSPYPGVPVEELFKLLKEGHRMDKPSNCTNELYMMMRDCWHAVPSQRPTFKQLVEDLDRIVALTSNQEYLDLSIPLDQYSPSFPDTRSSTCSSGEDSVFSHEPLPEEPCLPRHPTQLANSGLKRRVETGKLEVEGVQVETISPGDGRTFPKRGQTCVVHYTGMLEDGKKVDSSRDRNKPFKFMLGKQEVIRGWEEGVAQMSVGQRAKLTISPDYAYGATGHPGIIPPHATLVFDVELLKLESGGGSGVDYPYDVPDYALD
# Description: Activation of the MAPK pathway was assayed with the PathDetect Elk1 trans-Reporting System (Agilent) consisting of an Elk1 phosphorylation-dependent trans-activator and a luciferase-based trans-reporter. Cells were transfected with 213.3 ng total DNA per well (receptor, trans-activator and trans-reporter at ratio of 1:3:60 or 1:30:600) using Lipofectamine 2000. Six h after transfection medium was replaced with CO2-independent reduced serum starve medium (Gibco/Life Technologies; supplemented with 0.5% FBS, 2 mM L-Glutamine, 100 U/ml penicilin and 0.1 mg/ml streptomycin) for 18 h at 37° C. Cells were transferred and were either kept under constant illumination for 8 h or were protected from light. Chemical stimulation of imFGFR1 followed the same procedure, except that 10 nM AP20187 ((Clackson 1998); ARIAD Pharmaceuticals, Cambridge, Mass.) were added before transfer to the stimulation incubator. After incubation, plates were washed once with PBS and luciferase was detected with standard, off-the-shelf reagents. These were either Luciferase 1000 Assay System (Promega, Mannheim, Germany) in combination with a microplate reader equipped with an injector (Tecan Infinite 200 Pro, Maennedorf, Switzerland), or ONE-Glo Assay System (Promega) in combination with a microplate reader not equipped with an injector (BioTek Synergy H1). These assay systems provide equivalent results.
# [2] = system: luciferase reporter plasmid; test: Light-activated VfAU1-LOV transcription factor, luciferase reporter; type: cell-based; details: blue light ~3 μW/mm^2, FIG. 4b
# From the text: The plasmid pGAVPO (Y. Yang, East China University of Science and Technology) contains a Gal4 DNA binding domain, NcVV-LOV and a transactivation domain (Wang et al. 2012) (FIG. 4b). Blue-light activation of pGAVPO was detected with the luciferase reporter plasmid applied in MAPK pathways assays (see above; this plasmid contains multiple UAS sequences). VfAU1-LOV was amplified by PCR and oligonucleotides 24 and 25 (SEQ ID NO: 38 and 39, respectively) and inserted in pGAVPO using BglII and EcoRI restriction enzymes. Constructs was verified by DNA sequencing. Luciferase activation experiments were performed as described above except that mFGFR1 plasmids were replaced with 50 ng pGAVPO per well.
# [3] = published half lives converted to lifetimes where necessary; cited from earlier work
# LOV domains = details: cited from earlier work
# [4] = dark state, read-out: Estimated KD, Dark
# [5] = light state, read-out: Estimated KD, Light
molecule,measurement,setting,value
N#CC(=C(/N)Sc1ccccc1N)/C(C#N)=C(/N)Sc1ccccc1N [UO126],Abrogation of light-induced morphology changes of M38K cells,M38K cells,abrogated
same,Abrogation of MAPK pathway induction in response to red light,MAPK pathway,abrogated
COc1cc(OC)cc(-c2cc3cnc(N)nc3nc2NC(=O)NC(C)(C)C)c1 [PD166866],Light-induced changes in morphology after pre-treatment,"M38K cells; M38K cells with Opto-mFGFR1, blue light, FIGS. 6e and f",inhibited
same,Abrogation of light-induced morphology changes of M38K cells,M38K cells,abrogated
same,Abrogation of MAPK pathway induction in response to red light,MAPK pathway,not effective
FGF2: a prominent FGFR ligand,Cell morphology response,"M38K cells; M38K cells, blue light (Opto-mFGFR1) or added growth factor",elongated morphology
Phycocyanobilin [PCB],Toxicity in living animals,[1],non-toxic
CC[C@H](C(=O)N1CCCC[C@H]1C(=O)O[C@H](CCc1ccc(OC)c(OC)c1)c1cccc(OCC(=O)NCC(CNC(=O)COc2cccc([C@@H](CCc3ccc(OC)c(OC)c3)OC(=O)[C@@H]3CCCCN3C(=O)[C@@H](CC)c3cc(OC)c(OC)c(OC)c3)c2)CN(C)C)c1)c1cc(OC)c(OC)c(OC)c1 [AP20187],Activation of imFGFR1 (MAPK pathway),imFGFR1,activated
Cc1ccc(NC(=O)c2ccc(CN3CCN(C)CC3)cc2)cc1Nc1nccc(-c2cccnc2)n1 [Imatinib],Abrogation of MAPK pathway induction in response to red light,MAPK pathway,not effective
NC1(c2ccc(-c3nc4ccn5c(=O)[nH]nc5c4cc3-c3ccccc3)cc2)CCC1 [MK2206],Abrogation of light-induced morphology changes of M38K cells,M38K cells,not effective
"GA-VfAU1-LOV-P: VfAU1-LOV incorporated into pGAVPO transcription factor (Gal4 DNA binding domain, transactivation domain) (protein, left off: large carriers) MKLLSSIEQACDICRLKKLKCSKEKPKCAKCLKNNWECRYSPKTKRSPLTRAHLTEVESRLERLEPDYSLVKALQMAQQNFVITDASLPDNPIVYASRGFLTLTGYSLDQILGRNCRFLQGPETDPRAVDKIRNAITKGVDTSVCLLNYRQDGTTFWNLFFVAGLRDSKGNIVNYVGVQSKVSEDYAKLLVNEQNIEYKGVRTSNMLRRK",Light activated transcriptional response (dimerization-dependent transcription factor),[2],light activated transcriptional responses
"AtPH1-LOV2: LOV domain of A. thaliana phototropin 1, residue 449 to 586 of O48963, SEQ ID NO: 2 (protein, listed as Arabidopsis thaliana) ESVDDKVRQKEMRKGIDLATTLERIEKNFVITDPRLPDNPIIFASDSFLELTEYSREEILGRNCRFLQGPETDLTTVKKIRNAIDNQTEVTVQLINYTKSGKKFWNIFHLQPMRDQKGEVQYFIGVQLDGSKHVEPVR",Estimated excited state lifetime,[3],~40 s
same,Kd,LOV domains; [4],< 25 µM
same,Kd,LOV domains; [5],< 25 µM
"CrPH-LOV1: LOV domain of C. reinhardtii phototropin, residue 16 to 133 of A8IXU7, SEQ ID NO: 6 (protein, listed as Chlamydomonas reinhardtii) AGLRHTFVVADATLPDCPLVYASEGFYAMTGYGPDEVLGHNCRFLQGEGTDPKEVQKIRDAIKKGEACSVRLLNYRKDGTPFWNLLTVTPIKTPDGRVSKFVGVQVDVTSKTEGKALA",Estimated excited state lifetime,[3],~200^1 s
same,Kd,LOV domains; [4],< 55 µM
same,Kd,LOV domains; [5],< 55 µM
"AtPH2-LOV2: LOV domain of A. thaliana phototropin 2, residue 363 to 500 of P93025, SEQ ID NO: 4 (protein, listed as Arabidopsis thaliana) DSWDLSDRERDIRQGIDLATTLERIEKNFVISDPRLPDNPIIFASDSFLELTEYSREEILGRNCRFLQGPETDQATVQKIRDAIRDQREITVQLINYTKSGKKFWNLFHLQPMRDQKGELQYFIGVQLDGSDHVEPLQ",Estimated excited state lifetime,[3],~7 s
same,Kd,LOV domains; [4],< 25 µM
same,Kd,LOV domains; [5],< 25 µM
